From US20260364175A1, “COMPOSITIONS FOR DRUG ADMINISTRATION” (Aegis Therapeutics, LLC, priority 2018, published 2026)
Read-outs that look alike come from different tables or passages of the source.

Columns and labels:
[1] = rat, in vivo
Protocol: Each set of drug solutions is administered to six groups of eight rats each by 20 uL instillation to a single nare of each animal. […] After the last blood sample is collected each animal is euthanized with CO2. […] Plasma samples are stored at −70 °C until analyzed. […] The concentration vs time data are plotted to determine the Cmax at each alkylsaccharide concentration and the ratio of Cmax with and without alkylsaccharide present is calculated and recorded as shown in Table XIX.

[2] = Oral phenylephrine tablet bioavailability in a canine model; type: in vivo, dog; settings: compressed tablets
Protocol: In a canine model, subjects were dosed orally with various phenylephrine (PE) tablet formulations, and blood samples were taken to determine the rate of parent phenyl ethyl phenylephrine absorption. Blood levels of parent phenylephrine were measured. Three subject groups were created with each alkylsaccharide test group containing five subjects in each test group. All subject groups received 10 mg of phenylephrine as a single tablet. Each subject was in the fasting state for overnight and two hours post dose. Blood samples were taken at pre-dose, 5, 10, 15, 30, 45 min., 1, 2, and 3 hours.
Comparator was the standard 30 mg (total weight including excipients) phenylephrine tablet was no absorption enhancer. Group number 2 tablets contain the alkylsaccharide designated A3, which is n-dodecyl-beta-D-maltoside in the amounts of 2.5 mg, 5 mg, and 7.5 mg, respectively. Group number three tablets contain the alkylsaccharide designated B3, which is sucrose monododecanoate, in the amounts of 5 mg, 10 mg, and 20 mg, respectively.

blood glucose = test: Ocular administration of insulin plus absorption enhancer, blood glucose in anesthetized rats; type: in vivo, rat (male Sprague-Dawley); settings: for Blood Glucose: insulin eye drops + 0.50%
[3] = tested on: Escherichia coli (ATCC No. 8739); test: Antibacterial activity, log reduction of cfu; type: cell-based; settings: Escherichia coli
Excerpt: (§1) The viable microorganisms used in the invention were not more than five passages removed from the original ATCC culture. As described herein, one passage is defined as the transfer of organisms from an established culture to fresh medium and all transfers are counted.
(§2) Cultures received from the ATCC are resuscitated according to the directions provided by the ATTC. Cells grown in broth were pelleted by centrifugation, resuspended in 1/20th the volume of fresh maintenance broth, and combined with an equal volume of 20% (v/v in water) sterile glycerol. Cells grown on agar were scraped from the surface into the maintenance broth also containing 10% glycerol broth. Small aliquots of the suspension were dispensed into sterile vials and the vials were stored in liquid nitrogen or in a mechanical freezer at a temperature no higher than about −50 °C. When a fresh seed-stock vial was required, it was removed and used to inoculate a series of working stock cultures. These working stock cultures were then used periodically (each day in the case of bacteria and yeast) to start the inoculum culture.
(§3) The culture conditions for the inoculum culture is substantially as described in Table IV. For example, suitable media can include but is not limited to, Soybean-Casein Digest or Sabouraud Dextrose Agar Medium. […]
(§4) The suspension should be refrigerated if it is not used within 2 hours. To confirm the initial cfu per mL estimate, the number of cfu per mL in each suspension was determined using the conditions of media and microbial recovery incubation times listed in Table IV (e.g., from about 3 to about 7 days). This value serves to calibrate the size of inoculum used in the test. The bacterial and yeast suspensions were used within 24 hours of harvest; whereas the fungal preparation can be stored under refrigeration for up to 7 days.
(§5) To determine which alkylglycoside formulations have antibacterial activity, the formulations were prepared in phosphate buffered saline (PBS) at pH 7. As a source of nutrition, either 1.5 mg/mL bovine serum albumin (BSA; see Tables V and VI) or 1 mg/mL of PYY was added (see Table VII) to the medium. BSA (CAS Number: 9048-46-8) was obtained from Sigma-Aldrich, St. Louis, MO, USA, n-dodecyl-4-O-α-D-glucopyranosyl-β-D-glucopyranoside and n-tetradecyl-4-O-α-D-glucopyranosyl-β-D-glucopyranoside were obtained from Anatrace Inc., Maumee, OH, USA, and PYY was obtained from Bachem California Inc., Torrance, CA, USA.
(§6) Antibacterial activity of the alkylglycosides were conducted in four sterile, capped bacteriological containers of suitable size into which a sufficient volume of alkylglycoside solution had been transferred. Each container was inoculated with one of the prepared and standardized inoculums and mixed. The volume of the suspension inoculum was between about 0.5% and about 1.0% of the volume of the alkylglycoside solution. […]. To determine the level of inhibition of growth, or reduction of growth based on a logarithmic scale, the initial concentration of viable microorganisms in each test preparation was estimated based on the concentration of microorganisms in each of the standardized inoculum as determined by the plate-count method. The inoculated containers were then incubated at about 22.5 °C±2.5. The growth or non-growth of the microorganisms in each culture/container were again determined at day 14 and day 28. The number of cfu present in each calculation was determined by the plate-count procedure standard in the art for the applicable intervals. The change in the orders of magnitude of bacterium and/or fungi was then determined by subtracting the first calculated log 10 values of the concentrations of cfu per mL present at the start or beginning (e.g., day 0), from the log 10 values of the concentration of cfu per mL for each microorganism at the applicable test intervals (e.g., day 14 and day 28; see Tables V, VI and VII).

[4] = tested on: Staphylococcus aureus (ATCC No. 6538); test: Antibacterial activity, log reduction of cfu; type: cell-based
Excerpt: as §1, §2, §3, §4, §5, §6

[5] = tested on: Aspergillus niger (ATCC No. 16404); test: Antimicrobial activity, log reduction of cfu; type: cell-based; settings: for log reduction at […]: Aspergillus niger
Excerpt: as §1, §2, §3, §4, §5, §6

[6] = tested on: Candida albicans (ATCC No. 10231); test: Antimicrobial activity, log reduction of cfu; type: cell-based
Excerpt: as §1, §2, §3, §4, §5, §6

SMILES: CCCCCCCCCCCCO[C@@H]1O[C@H](CO)[C@@H](O[C@H]2O[C@H](CO)[C@@H](O)[C@H](O)[C@H]2O)[C@H](O)[C@H]1O [Dodecyl Maltoside, n-Dodecyl-4-O-α-D-glucopyranosyl-β-D-glucopyranoside]
- Ratio Cmax(alkylsacch)/Cmax(No alkylsacch) [1]: ≥1.5
- increase of oral bioavailability of phenylephrine [2]: up to 56%
- effect on ocular insulin absorption (blood glucose; 0.5% and […] enhancer with insulin eye drops): equally effective
- effect on blood glucose / ocular insulin absorption (blood glucose; 0.5% enhancer with 0.2% insulin eye drops): maintained in the normoglycemic (80-120 mg/dl) or near-normoglycemic (120-160 mg/dl) range
- effect on ocular insulin absorption (alkyl chain length comparison) (blood glucose; alkylmaltosides with insulin eye drops): more effective
- Blood Glucose (blood glucose; 0 min): 379 ± 4 mg/dL
- Blood Glucose (blood glucose; 30 min): 297 ± 18 mg/dL
- Blood Glucose (blood glucose; 60 min): 188 ± 25 mg/dL
- Blood Glucose (blood glucose; 90 min): 141 ± 13 mg/dL
- Blood Glucose (blood glucose; 120 min): 123 ± 5 mg/dL
- Blood Glucose (blood glucose; -10 min (pre-dose)): 366 ± 12 mg/dL
- Blood Glucose (blood glucose; -20 min (pre-dose)): 375 ± 9 mg/dL
- log reduction at […] ([3]; ATCC8739, 336 h): ≥ 5
- log reduction at […] ([3]; ATCC8739, 672 h): ≥ 5
- log reduction at […] ([3]; ATCC8739, 672 h, read-out: log reduction of microorganisms): 0.1
- log reduction at […] ([4]; ATCC6538, 336 h): ≥ 4.9
- log reduction at […] ([4]; ATCC6538, 336 h, read-out: log reduction of microorganisms): ≥ 5.2
- log reduction at […] ([4]; ATCC6538, 672 h): ≥ 4.9
- log reduction at […] ([4]; ATCC6538, 672 h, read-out: log reduction of microorganisms): ≥ 5.2
- log reduction at […] ([5]; ATCC16404, 336 h): 4.7
- log reduction at […] ([5]; ATCC16404, 336 h, read-out: log reduction of microorganisms): 0.7
- log reduction at […] ([5]; ATCC16404, 672 h): 4.7
- growth from initial count ([5]; […], day 28): No growth
- log reduction at […] ([6]; ATCC10231, 336 h): ≥ 4.5
- log reduction at […] ([6]; ATCC10231, 336 h, read-out: log reduction of microorganisms): 3
- log reduction at […] ([6]; ATCC10231, 672 h): ≥ 4.5
- log reduction at […] ([6]; ATCC10231, 672 h, read-out: log reduction of microorganisms): ≥ 5.3
